This is an account of results in ChEMBL document CHEMBL3886562, “Substituted pyridone derivatives as PDE10 inhibitors” (2016).

By Ki is commonly meant the equilibrium dissociation constant of an inhibitor or competing ligand from its target.

SMILES strings stand for the structures.

This assay addresses cAMP and cAMP-inhibited cGMP 3',5'-cyclic phosphodiesterase 10A (Homo sapiens, UniProt Q9Y233). The assay is described as follows: PDE10 Fluorescence Polarization (FP) Assay: The fluorescence polarization assay for cyclic nucleotide phosphodiesterases was performed using an IMAP FP kit supplied by Molecular Devices, Sunnyvale, Calif. (product # R8139). IMAPU technology has been applied previously to phosphodiesterase assays (Huang, W., et al., J. Biomol Screen, 2002, 7: 215). Assays were performed at room temperature in 384-well microtiter plates with an incubation volume of 20.2 uL. Solutions of test compounds were prepared in DMSO and serially diluted with DMSO to yield 8 uL of each of 10 solutions differing by 3-fold in concentration, at 32 serial dilutions per plate.

cAMP and cAMP-inhibited cGMP 3',5'-cyclic phosphodiesterase 10A, sequence (Q9Y233 whole entry): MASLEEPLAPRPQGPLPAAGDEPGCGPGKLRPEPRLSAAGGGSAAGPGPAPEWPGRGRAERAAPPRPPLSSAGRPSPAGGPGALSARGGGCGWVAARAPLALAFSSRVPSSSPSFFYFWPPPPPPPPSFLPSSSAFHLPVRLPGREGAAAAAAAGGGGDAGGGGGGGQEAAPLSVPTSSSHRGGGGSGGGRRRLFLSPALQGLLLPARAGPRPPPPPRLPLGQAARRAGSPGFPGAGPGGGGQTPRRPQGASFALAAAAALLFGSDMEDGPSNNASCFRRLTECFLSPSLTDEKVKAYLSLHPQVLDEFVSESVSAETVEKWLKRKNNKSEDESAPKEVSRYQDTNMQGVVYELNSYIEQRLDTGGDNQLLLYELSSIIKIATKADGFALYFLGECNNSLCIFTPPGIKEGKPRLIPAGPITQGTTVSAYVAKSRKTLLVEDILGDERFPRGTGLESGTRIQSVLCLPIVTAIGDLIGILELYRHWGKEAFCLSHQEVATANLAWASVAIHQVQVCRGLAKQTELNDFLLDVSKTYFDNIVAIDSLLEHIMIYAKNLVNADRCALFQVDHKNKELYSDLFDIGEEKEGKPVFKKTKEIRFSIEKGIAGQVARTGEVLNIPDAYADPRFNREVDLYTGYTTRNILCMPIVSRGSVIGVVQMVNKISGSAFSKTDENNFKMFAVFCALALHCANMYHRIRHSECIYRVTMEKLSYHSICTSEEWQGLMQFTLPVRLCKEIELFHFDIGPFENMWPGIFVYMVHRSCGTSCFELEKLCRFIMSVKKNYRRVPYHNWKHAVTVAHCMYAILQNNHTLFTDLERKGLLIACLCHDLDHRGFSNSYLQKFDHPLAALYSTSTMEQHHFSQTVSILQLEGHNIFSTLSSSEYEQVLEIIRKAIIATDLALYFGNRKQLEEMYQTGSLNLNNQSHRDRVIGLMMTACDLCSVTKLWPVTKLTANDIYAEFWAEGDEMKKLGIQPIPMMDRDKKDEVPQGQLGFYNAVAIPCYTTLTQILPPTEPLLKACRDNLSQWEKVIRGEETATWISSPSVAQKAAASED

In turn, `Cc1ncc(-c2cc(F)c(=O)n(C)c2)c(OC[C@H]2C[C@@H]2c2ccc3ccccc3n2)n1` had a Ki of 0.041 nM.
Molecule `Cc1ccc([C@H]2C[C@@H]2COc2nc(C)ncc2-c2ccc(=O)n(CC#N)c2)nc1` came in with a Ki of 3.48 nM.
